Tested on: Canis familiaris
Assay: Inhibition of gastric acid secretion in dogs stimulated by gastrin tetrapeptide when administered perorally
Type: functional
Conditions: Canis lupus familiaris, Stomach, po

With `Cc1cc(CO)cc(N(CCN(C(C)C)C(C)C)C(=O)N(C)C)n1` the ED50 was 23.3 µmol/kg.
With `Cc1cc(CO)nc(N(CCN(C(C)C)C(C)C)C(=O)N(C)C)c1` the ED50 was 29.4 µmol/kg.
`CN/C(=N\CCSCc1nc[nH]c1C)NC#N` [CIMETIDINE] showed an ED50 of 14.3 µmol/kg.
With `[2H]C([2H])([2H])c1cc(C)nc(N(CCN(C(C)C)C(C)C)C(=O)N(C)C)c1` the ED50 was 7.26 µmol/kg.
For `CC(C)N(CCN(C(=O)N(C)C)c1cc(C(F)(F)F)cc(C(F)(F)F)n1)C(C)C`, the ED50 was 43.9 µmol/kg.
`Cc1cc(C)nc(N(CCN(C(C)C)C(C)C)C(=O)N(C)C)c1` showed an ED50 of 15.3 µmol/kg.
